Test results published in ChEMBL document CHEMBL1201862, “PubChem BioAssay data set” (2004).
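Each compound was tested at five concentrations against cells in 96-well plates for 48 hours. The concentration for 50% growth inhibition is given as GI50.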 Active and inactive are the calls of the source. No stated cut-off is given here; in the data, active = GI50 up to about 1.1 µM and inactive = higher.

Columns and labels:
Assay in all cases: DTP human tumour cell line panel, 48 h
KM-20L2 = system: KM-20L2
SNB-75 = system: SNB-75
CAKI-1 = system: CAKI-1
HCT-116 = system: HCT-116
LOX IMVI = system: LOX IMVI
SK-OV-3 = system: SK-OV-3
SF-268 = system: SF-268
SNB-78 = system: SNB-78
CCRF-CEM = system: CCRF-CEM
OVCAR-3 = system: OVCAR-3
TK-10 = system: TK-10
HL-60 = system: HL-60
HOP-92 = system: HOP-92
U-251 = system: U-251
RPMI-8226 = system: RPMI-8226
NCI-H460 = system: NCI-H460
MDA-MB-231 = system: MDA-MB-231
T47D = system: T47D
Hs-578T = system: Hs-578T
NCI/ADR-RES = system: NCI/ADR-RES

Row | Structure (SMILES) | GI50 (KM-20L2) | GI50 (SNB-75) | GI50 (CAKI-1) | GI50 (HCT-116) | GI50 (LOX IMVI) | GI50 (SK-OV-3) | GI50 (SF-268) | GI50 (SNB-78) | GI50 (CCRF-CEM) | GI50 (OVCAR-3) | GI50 (TK-10) | GI50 (HL-60) | GI50 (HOP-92) | GI50 (U-251) | GI50 (RPMI-8226) | GI50 (NCI-H460) | GI50 (MDA-MB-231) | GI50 (T47D) | GI50 (Hs-578T) | GI50 (NCI/ADR-RES)
1 | COc1cc([C@@H]2c3cc4c(cc3[C@@H](NC(=O)c3cccc(C#N)c3)C3COC(=O)[C@@H]32)OCO4)cc(OC)c1O (some centres undefined) | 1.63 µM (inactive) | 0.433 µM (active) | 0.678 µM (active) | 1.1 µM (active) | 0.398 µM (active) | 0.912 µM (active) | 1.32 µM (inactive) | 9.33 µM (inactive) | 0.0841 µM (active) | 2.75 µM (inactive) | 3.29 µM (inactive) | 0.166 µM (active) | 0.498 µM (active) | 0.155 µM (active) | 7.14 µM (inactive) | < 0.01 µM (active) |  |  |  | 
2 | C/C(=N\NC(N)=S)c1ccc(C)c(C)c1 | 44.7 µM (inactive) | 40.3 µM (inactive) | 92.5 µM (inactive) | > 100 µM (inactive) | > 100 µM (inactive) | 75.7 µM (inactive) | > 100 µM (inactive) | > 100 µM (inactive) | 28.1 µM (inactive) | 22.8 µM (inactive) | 53.5 µM (inactive) | 15.1 µM (inactive) | 93.3 µM (inactive) | 88.9 µM (inactive) | 34.5 µM (inactive) | 59.3 µM (inactive) |  |  |  | 
3 | Cc1cc(O)nc(NNC(C#N)c2ccco2)n1 (centres undefined) | > 100 µM (inactive) | 37.2 µM (inactive) | > 100 µM (inactive) | > 100 µM (inactive) | > 100 µM (inactive) | > 100 µM (inactive) | > 100 µM (inactive) | > 100 µM (inactive) | > 100 µM (inactive) | > 100 µM (inactive) | > 100 µM (inactive) | > 100 µM (inactive) | > 100 µM (inactive) | > 100 µM (inactive) | > 100 µM (inactive) | > 100 µM (inactive) |  |  |  | 
4 | CC(C)N(C(=O)C12CC3CC(CC(C3)C1)C2)C(C)C | > 50 µM (inactive) | > 50 µM (inactive) | > 50 µM (inactive) | > 50 µM (inactive) | > 50 µM (inactive) | > 50 µM (inactive) | > 50 µM (inactive) | > 50 µM (inactive) | > 50 µM (inactive) | > 50 µM (inactive) | > 50 µM (inactive) | > 50 µM (inactive) | > 50 µM (inactive) | > 50 µM (inactive) | > 50 µM (inactive) | > 50 µM (inactive) |  |  |  | 
5 | Cc1cc(O)nc(NNC(C#N)c2cccc([N+](=O)[O-])c2)n1 (centres undefined) | > 100 µM (inactive) | 65.3 µM (inactive) | > 100 µM (inactive) | > 100 µM (inactive) | > 100 µM (inactive) | > 100 µM (inactive) | > 100 µM (inactive) | > 100 µM (inactive) | > 100 µM (inactive) | > 100 µM (inactive) | > 100 µM (inactive) | > 100 µM (inactive) | > 100 µM (inactive) | > 100 µM (inactive) | > 100 µM (inactive) | > 100 µM (inactive) |  |  |  | 
6 | CN(C)C(=S)/N=c1\ssc(=S)n1Cc1ccccc1 | 0.195 µM (active) | 0.203 µM (active) | 0.676 µM (active) | 0.344 µM (active) | 0.455 µM (active) | 0.434 µM (active) | 1.82 µM (inactive) | 0.8 µM (active) | 0.411 µM (active) | 0.168 µM (active) | 1.45 µM (inactive) | 0.338 µM (active) | 0.342 µM (active) | 0.419 µM (active) | 0.785 µM (active) | 0.34 µM (active) | 0.631 µM (active) | 6.31 µM (inactive) | 0.193 µM (active) | 0.119 µM (active)
7 | C=CC/N=C1\N=C(C)C(C(=O)OCC)S1 (centres undefined) | > 100 µM (inactive) | > 100 µM (inactive) | > 100 µM (inactive) | > 100 µM (inactive) | > 100 µM (inactive) | > 100 µM (inactive) | > 100 µM (inactive) | > 100 µM (inactive) | 7.05 µM (inactive) | > 100 µM (inactive) | > 100 µM (inactive) | 7.16 µM (inactive) | > 100 µM (inactive) | > 100 µM (inactive) | > 100 µM (inactive) | > 100 µM (inactive) |  |  |  | 
8 | COc1ccc2nc3ccccc3c(NCCCCCCN(CCCl)CCCl)c2c1 | 0.0776 µM (active) | 0.108 µM (active) | 0.0353 µM (active) | 0.0299 µM (active) | 0.0199 µM (active) | 0.226 µM (active) | 0.0649 µM (active) | 0.223 µM (active) | 0.0107 µM (active) | 0.0627 µM (active) | 1.04 µM (active) | 0.0122 µM (active) | 0.124 µM (active) | 0.0528 µM (active) | 0.0122 µM (active) | 0.0346 µM (active) | 0.486 µM (active) |  |  | 0.0883 µM (active)
